Patent publication US20060067886A1, “Gastrin receptor-avid peptide conjugates” (priority 1997, published 2006)
Where two headings read alike, the source gives them in different places.

Experiments:
[1] = target: T1, GRP receptors on Swiss 3T3 cells (Mus musculus, UniProt P21729); test: Competitive cell binding vs 125I-Tyr4-BBN, Swiss 3T3 cells
T1 construct: endogenous in cells; host or cells: Swiss 3T3 mouse fibroblasts (whole cells)
Protocol: The binding affinities of the synthetic BBN derivatives were assessed for GRP receptors on Swiss 3T3 cells and, in some cases, on a variety of human cancer cell lines, that express GRP receptors. […] The cell binding assay methods used to measure the IC50's is standard and used techniques previously reported [Jensen et al., 1993; Cai et al., 1994; Cai et al., 1992]. The methods used for determining IC50's for all GRP receptor binding compounds on all cell lines was similar. The specific method used to measure IC50's on Swiss 3T3 cells is briefly described as follows:
(§1) Swiss 3T3 mouse fibroblasts are grown to confluence in 48 well microtiter plates. […] The growth media was removed, the cells were washed twice with incubation media, and incubation media was returned to the cells. ^125I-Tyr4-BBN (0.01 uCi) was added to each well in the presence of increasing concentrations of the appropriate competitive peptide. Typical concentrations of displacing peptide ranged from 10-12 to 10-5 moles of displacing ligand per well. The cells were incubated at 37° C. for forty minutes in a 95% […]/5% CO2 humidified environment. At forty minutes post initiation of the incubation, the medium was discarded, and the cells were washed twice with cold incubation media. The cells were harvested from the wells following incubation in a trypsin/EDTA solution for five minutes at 37° C. Subsequently, the radioactivity, per well, was determined and the maximum % total uptake of the radiolabeled peptide was determined and normalized to 100%.
The binding affinities of the synthetic BBN derivatives were assessed for GRP receptors on Swiss 3T3 cells, PC-3 cells and CF PAC-1 cells. The IC50's of each of derivative were determined relative to (i.e., in competition with) ^125I-Tyr^4-BBN. The cell binding assay methods used to measure the IC50's is standard and was used by techniques previously reported [Jensen et al., 1993; Cai et al., 1992; Cai et al., 1994]. The methods used for determining IC50's with all BBN analogue binding to GRP receptors present on all three cell lines were similar. The specific method used to measure IC50's on Swiss 3T3 cells, is briefly described as follows:
as §1, with “microliter” for “microtiter”, “^125I-Tyr^4-BBN” for “^125I-Tyr4-BBN”, “μCi)” for “uCi)”, “10^−12” for “10-12”, “10^−5” for “10-5”, “100%. A similar procedure was used in performing cell binding assays with both the PC-3 and CFa-PAC-1 human cancer cell lines.” for “100%.”

[2] = target: T2, GRP receptors on PC-3 cells (Homo sapiens, UniProt P30550); test: Competitive cell binding vs 125I-Tyr4-BBN, PC-3 cells
T2 construct: two different human cancer cell lines that express GRP receptors (i.e., CF-PAC1 and PC-3 cell lines); host or cells: PC-3 human prostate cancer cells (whole cells)

[3] = target: T3, GRP receptors on CF PAC-1 cells (Homo sapiens, UniProt P30550); test: Competitive cell binding vs 125I-Tyr4-BBN, CF PAC-1 cells
T3 construct: two different human cancer cell lines that express GRP receptors (i.e., CF-PAC1 and PC-3 cell lines); endogenous in cells; host or cells: CFPAC-1 human pancreatic cancer cells (whole cells)

PC-3 cells = test: Internalization and efflux of In-DOTA-8-Aoc-BBN in PC-3 cells; assay type: cell-based, human
Protocol: Internalization and efflux studies. […] The percent of cell-associated activity as a function of time (in the incubating medium at 37° C.) was determined. The percentage radioactivity trapped in the cells was determined after removing activity bound to the surface of the cells by washing with a pH-2.5 (0.2M acetic acid and 0.5M NaCl) buffer 1, 2, 3 and 4 hours afterwards.

T2 sequence (P30550 whole entry): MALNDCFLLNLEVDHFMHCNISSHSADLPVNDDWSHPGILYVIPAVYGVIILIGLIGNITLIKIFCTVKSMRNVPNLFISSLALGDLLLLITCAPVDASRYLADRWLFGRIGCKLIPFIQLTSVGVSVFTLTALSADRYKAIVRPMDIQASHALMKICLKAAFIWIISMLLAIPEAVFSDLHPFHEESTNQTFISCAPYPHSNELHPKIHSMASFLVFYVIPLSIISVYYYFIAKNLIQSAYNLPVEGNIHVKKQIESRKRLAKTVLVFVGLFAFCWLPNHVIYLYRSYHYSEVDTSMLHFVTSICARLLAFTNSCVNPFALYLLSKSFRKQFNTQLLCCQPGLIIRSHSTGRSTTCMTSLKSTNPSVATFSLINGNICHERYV
T3 sequence (P30550 whole entry): as above
T1 sequence (P21729 whole entry): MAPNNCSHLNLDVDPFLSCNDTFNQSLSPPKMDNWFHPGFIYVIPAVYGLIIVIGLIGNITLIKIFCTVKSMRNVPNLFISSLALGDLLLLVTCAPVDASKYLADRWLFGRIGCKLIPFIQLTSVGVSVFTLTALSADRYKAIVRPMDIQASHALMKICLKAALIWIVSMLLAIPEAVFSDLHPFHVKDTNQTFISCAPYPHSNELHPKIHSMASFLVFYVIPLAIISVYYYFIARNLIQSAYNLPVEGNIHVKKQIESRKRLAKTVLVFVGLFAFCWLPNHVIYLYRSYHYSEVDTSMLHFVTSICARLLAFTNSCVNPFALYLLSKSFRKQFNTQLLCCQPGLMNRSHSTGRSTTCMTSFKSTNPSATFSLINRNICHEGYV

SMILES | IC50 [1] | IC50 ([2]; PC-3 cells, read-out: IC50) | IC50 [3] | internalization (PC-3 cells) | retention within cells (PC-3 cells) | IC50 ([2]; Prostate CA, PC-3, read-out: IC50 (Mean Value))
CSCC[C@H](NC(=O)[C@H](CC(C)C)NC(=O)[C@H](Cc1c[nH]cn1)NC(=O)CNC(=O)[C@@H](NC(=O)[C@H](C)NC(=O)[C@H](Cc1c[nH]c2ccccc12)NC(=O)[C@H](CCC(N)=O)NC(=O)CNC(=O)CNC(=O)COC1CSCCCSCCCSCCCSC1)C(C)C)C(N)=O [BBN-98] | 1 to 6 nM | 1 to 6 nM | 1 to 6 nM | – | – | –
CSCC[C@H](NC(=O)[C@H](CC(C)C)NC(=O)[C@H](Cc1c[nH]cn1)NC(=O)CNC(=O)[C@@H](NC(=O)[C@H](C)NC(=O)[C@H](Cc1c[nH]c2ccccc12)NC(=O)[C@H](CCC(N)=O)NC(=O)CNC(=O)COC1CSCCCSCCCSCCCSC1)C(C)C)C(N)=O [BBN-99] | 1 to 6 nM | 1 to 6 nM | 1 to 6 nM | – | – | –
CSCC[C@H](NC(=O)[C@H](CC(C)C)NC(=O)[C@H](Cc1c[nH]cn1)NC(=O)CNC(=O)[C@@H](NC(=O)[C@H](C)NC(=O)[C@H](Cc1c[nH]c2ccccc12)NC(=O)[C@H](CCC(N)=O)NC(=O)CCCCCCCNC(=O)CN1CCN(CC(=O)O)CCN(CC(=O)O)CCN(CC(=O)O)CC1)C(C)C)C(N)=O [In-DOTA-8-Aoc-BBN[7-14]NH2] | – | – | – | rapid receptor mediated endocytosis | remained retained within the cells for a prolonged time period | –
CSCC[C@H](NC(=O)[C@H](CC(C)C)NC(=O)[C@H](Cc1c[nH]cn1)NC(=O)CNC(=O)[C@@H](NC(=O)[C@H](C)NC(=O)[C@H](Cc1c[nH]c2ccccc12)NC(=O)[C@H](CCC(N)=O)NC(=O)CCCCNC(=O)COC1CSCCCSCCCSCCCSC1)C(C)C)C(N)=O [RhCl2BBN-37] | 4.76 ± 0.79 nM | ~7 nM | ~7 nM | – | – | 7 nM
CSCC[C@H](NC(=O)[C@H](CC(C)C)NC(=O)[C@H](Cc1c[nH]cn1)NC(=O)CNC(=O)[C@@H](NC(=O)[C@H](C)NC(=O)[C@H](Cc1c[nH]c2ccccc12)NC(=O)[C@H](CCC(N)=O)NC(=O)CCNC(=O)COC1CSCCCSCCCSCCCSC1)C(C)C)C(N)=O [RhCl2BBN-46] | 3.38 ± 0.69 nM | – | – | – | – | –
